Read-outs that look alike come from different tables or passages of the source.
What was measured:
[1] = target: α-amylase from Bacillus licheniformis (Bacillus licheniformis, UniProt P06278); assay: biochemical; assay type: biochemical; conditions: for inhibition at 50 µg/mL: read-out: α-amylase (% inh. at 50 µg/mL); for α-amylase inhibitory potential (in words): within the tested concentrations
Protocol: The α-amylase inhibitory activity was evaluated by using the starch– iodine method with some modifications. The enzyme α-amylase from Bacillus licheniformis was used and enzyme solution was prepared with phosphate buffer (20 mM pH = 6.9 phosphate buffer prepared with 6 mM NaCl); then, 50 µL of α-amylase and 25 µL of different concentrations of compound or extract solutions were mixed in a 96-well microplate. The mixture was pre-incubated for 10 min at 37 °C; then, 50 µL of starch solution (0.05%) was added and incubated for 10 min at 37 °C. Following incubation, the reaction was completed by adding HCl (0.1 M, 25 µL) and Lugol (100 µL) solutions, and the absorbance was recorded at 565 nm.

[2] = system: α-glucosidase from Saccharomyces cerevisiae; assay: α-glucosidase inhibitory assay (PNPG substrate); assay type: biochemical; conditions: for α-glucosidase (% inh. at 50 µg/mL): highest test concentration; for α-glucosidase inhibitory potential (in words): within the tested concentrations
Protocol: The α-glucosidase inhibitory activity was evaluated according to the method described previously. 50 µL of phosphate buffer (0.01 M pH 6.9), 10 µL of different concentrations of compound or extract solution, 50 µL of α-glucosidase from Saccharomyces cerevisiae in phosphate buffer (0.01 M pH 6.0) and PNPG (4-N-nitrophenyl-α-D-glucopyranoside) 25 µL in phosphate buffer (0.01 M pH 6.9) were mixed in a 96-well microplate. The solution was then incubated for 20 min at 37 °C.

STZ-induced diabetes = conditions: doses of 20 and 40 mg/kg; cited from earlier work
[3] = read-out: α-amylase IC50 (converted)

α-amylase from Bacillus licheniformis, sequence (P06278 30-512): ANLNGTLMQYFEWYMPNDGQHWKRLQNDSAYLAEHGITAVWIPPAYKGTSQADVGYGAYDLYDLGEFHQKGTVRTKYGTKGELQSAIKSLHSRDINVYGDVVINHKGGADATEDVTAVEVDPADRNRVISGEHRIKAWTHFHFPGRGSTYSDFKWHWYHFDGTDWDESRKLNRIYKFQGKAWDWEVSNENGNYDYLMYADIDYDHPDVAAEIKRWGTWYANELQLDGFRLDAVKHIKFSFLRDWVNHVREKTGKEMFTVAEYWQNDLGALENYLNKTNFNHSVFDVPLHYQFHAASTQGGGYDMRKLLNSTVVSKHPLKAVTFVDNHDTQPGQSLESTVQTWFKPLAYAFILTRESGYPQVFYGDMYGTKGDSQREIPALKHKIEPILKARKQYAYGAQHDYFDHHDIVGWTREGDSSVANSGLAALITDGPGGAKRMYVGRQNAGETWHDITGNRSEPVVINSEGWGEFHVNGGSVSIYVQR

SMILES	inhibition at 50 µg/mL [1] [%]	α-glucosidase (% inh. at 50 µg/mL) [2] [%]	IC50 [1, 3] [µM]	α-glucosidase IC50 [2] [µg/mL]	antidiabetic potential in STZ-induced diabetic rats (STZ-induced diabetes)	IC50 [1] [µM]	α-amylase inhibitory potential (in words) [1]	α-glucosidase inhibitory potential (in words) [2]
C[C@H]1O[C@H](O[C@H]2[C@H](O)[C@@H](O)[C@@H](O[C@H]3[C@H](O)[C@@H](O)C(O)O[C@@H]3CO)O[C@@H]2CO)[C@H](O)[C@@H](O)[C@@H]1N[C@H]1C=C(CO)[C@@H](O)[C@H](O)[C@H]1O (some centres unmarked) [Acarbose, reference compound]	72.5 ± 1.5	81.7 ± 0.8						
Oc1cc(O)c2c(c1)OC1(c3ccc(O)c(O)c3)OC1C2c1c(O)cc(O)c2c1OC(c1ccc(O)c(O)c1)C(O)C2c1c(O)cc(O)c2c1OC(c1ccc(O)c(O)c1)C(O)C2 (centres unmarked) [compound 1, 2,3-Epoxyprocyanidin C1]	34.3 ± 0.7	53.4 ± 1.6	> 57.8	41.6 ± 1.0				
C[C@H]1C(=O)CC[C@@H]2[C@]1(C)CC[C@H]1[C@@]2(C)CC[C@@]2(C)[C@@H]3CC(C)(C)CC[C@]3(C)CC[C@]12C [compound 2, friedelin]	21.5 ± 0.6	32.1 ± 0.1		>50	antidiabetic potential	> 117	relatively low	relatively low
C=C(C)[C@@H]1CC[C@]2(CO)CC[C@]3(C)[C@H](CC[C@@H]4[C@@]5(C)CC[C@H](O)C(C)(C)[C@@H]5CC[C@]43C)[C@@H]12 [compound 3, betulin]	19.3 ± 0.4	28.5 ± 0.3		>50		> 113	relatively low	relatively low
COc1ccc(C(C)C(=O)c2ccc(O)cc2O)cc1 (centres unmarked) [compound 4, angolensin]	33.7 ± 0.5	54.1 ± 1.3	> 184	43.4 ± 0.5				
COc1cc(O)c2c(=O)c(-c3ccc(O)cc3)coc2c1 [compound 5, 7-methoxygenistein]	32.2 ± 1	50.6 ± 1.2		47.6 ± 0.9		> 176		
COc1ccc2c(=O)c(-c3ccc(O)cc3)coc2c1 [compound 6, 7-methoxydaidzein]	34.2 ± 0.5	51.8 ± 0.9	> 186	46.3 ± 0.2				
COc1c(-c2ccc(O)c(O)c2)oc2cc(O)cc(O)c2c1=O [compound 7, 3-O-methyl quercetin]	50.2 ± 2	54.0 ± 1.0	152	39.5 ± 1.2				
O=C(O)[C@H]1O[C@@H](Oc2cc(O)c3c(=O)cc(-c4ccc(O)cc4)oc3c2)[C@H](O)[C@@H](O)[C@@H]1O [compound 8, apigenin 7-O-glucoronide]	50.9 ± 0.8	55.2 ± 1.1	109	40.9 ± 1.3				
O=C1C[C@@H](c2ccc(O)cc2)Oc2cc(O[C@@H]3O[C@H](CO)[C@@H](O)[C@H](O)[C@H]3O)cc(O)c21 [compound 9, naringenin 7-O-β-D-glucopyranoside]	50.5 ± 1.2	53.7 ± 0.4		44.8 ± 0.6				
COc1cc2c(=O)oc3c(OC)c(OC4OC(COC5OC(C)C(O)C(O)C5O)C(O)C(O)C4O)cc4c(=O)oc(c1OC)c2c34 (centres unmarked) [compound 10, 3,3′,4-Trimethoxy-4′-rutinosylellagic acid]	45.4 ± 0.3	51.8 ± 0.9	> 76.6	45.0 ± 0.8				
COc1cc2c(=O)oc3c(OC)c(OC4OC(COC5OC(C)C(OC(C)=O)C(OC(C)=O)C5OC(C)=O)C(OC(C)=O)C(OC(C)=O)C4OC(C)=O)cc4c(=O)oc(c1OC)c2c34 (centres unmarked) [compound 11, 3,3′,4-Trimethoxy-4′-hexaacetylrutinosylellagic acid]	43.5 ± 0.6	50.7 ± 0.2	> 55.3	47.5 ± 0.4				

— publication PMC9822058, “In Vitro Evaluation of α-amylase and α-glucosidase Inhibition of 2,3-Epoxyprocyanidin C1 and Other Constituents from Pterocarpus erinaceus Poir” (Molecules, 2022)
